Here are results for 30 compounds from patent US8859580B2 (Boehringer Ingelheim International GmbH, priority 2007, dated 2014).

In this experiment the target is T1, 11β-HSD1 (Homo sapiens, UniProt P28845).
T1 construct: detecting cortisol generated from cortisterone by human liver microsomes; from tissue; host or cells: human liver microsomes
Kind of experiment: In vitro inhibition of 11β-HSD1, HTRF detection of cortisol generated from cortisone by human liver microsomes. In kind it is biochemical. The conditions noted are these: 11β-HSD IC50 (nM), 1 hour at 37° C., pH 6.0, NADPH 200 μM, cortisone 80 nM, inhibition relative to carbenoxolone signal. In short, it runs like this: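 Cortisol formed from cortisone by human liver microsomes quantified by competitive HTRF immunoassay (XL665-cortisol, Eu-cryptate anti-cortisol antibody), 2 h detection, Em665/Em615 ratio converted via cortisol calibration curve. Percent inhibition relative to carbenoxolone signal; IC50 from curves.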

T1 sequence (P28845 whole entry): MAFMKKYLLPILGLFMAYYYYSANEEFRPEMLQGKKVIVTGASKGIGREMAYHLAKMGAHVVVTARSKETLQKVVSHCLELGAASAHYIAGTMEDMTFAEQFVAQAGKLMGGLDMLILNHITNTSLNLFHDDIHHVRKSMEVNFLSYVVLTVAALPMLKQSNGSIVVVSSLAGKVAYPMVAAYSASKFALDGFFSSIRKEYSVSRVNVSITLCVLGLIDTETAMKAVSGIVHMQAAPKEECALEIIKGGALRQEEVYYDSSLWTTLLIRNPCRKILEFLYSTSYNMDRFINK

In turn, `COc1ccc2c(c1)[C@]1(C)CCN(C(=O)c3occc3C)[C@H](C2)[C@@H]1C` [Example 111, [(2R,6R,11R)-8-Methoxy-6,11-dimethyl-1,2,5,6-tetrahydro-4H-2,6-methano-benzo[d]azocin-3-yl]-(3-methyl-furan-2-yl)-methanone] gave a half-maximal inhibitory concentration (IC50) of 1600 nM.
For `Cc1ccoc1C(=O)N1CC[C@@]2(C)c3cc(O)ccc3C[C@@H]1[C@@H]2C` [Example 112, [(2R,6R,11R)-8-Hydroxy-6,11-dimethyl-1,2,5,6-tetrahydro-4H-2,6-methano-benzo[d]azocin-3-yl]-(3-methyl-furan-2-yl)-methanone] the value was 1230 nM.
On to `C[C@H]1[C@H]2Cc3ccc(O)cc3[C@]1(C)CCN2C(=O)c1ccco1` [Example 113, Furan-2-yl-[(2R,6R,11R)-8-hydroxy-6,11-dimethyl-1,2,5,6-tetrahydro-4H-2,6-methano-benzo[d]azocin-3-yl]-methanone], for which the IC50 is 3630 nM. This IC50 lies about 3-fold higher than the previous one.
Compound `C[C@H]1[C@H]2Cc3ccc(O)cc3[C@]1(C)CCN2C(=O)c1ccccc1[N+](=O)[O-]` [Example 115, [(2R,6R,11R)-8-Hydroxy-6,11-dimethyl-1,2,5,6-tetrahydro-4H-2,6-methano-benzo[d]azocin-3-yl]-(2-nitro-phenyl)-methanone] had an IC50 of 1590 nM.
For `CC1(C)[C@H]2Cc3c(O)cccc3[C@]1(C)CCN2C(=O)c1cc2ccccc2[nH]1` [Example 116, [(2R,6S)-10-Hydroxy-6,11,11-trimethyl-1,2,5,6-tetrahydro-4H-2,6-methano-benzo[d]azocin-3-yl]-(1H-indol-2-yl)-methanone] the value was 3850 nM.
With `CC1(C)[C@H]2Cc3c(O)cccc3[C@]1(C)CCN2C(=O)c1ccc(CN)cc1` [Example 117, (4-Aminomethyl-phenyl)-[(2R,6S)-10-hydroxy-6,11,11-trimethyl-1,2,5,6-tetrahydro-4H-2,6-methano-benzo[d]azocin-3-yl]-methanone], inhibition was half-maximal at 1420 nM (IC50).
The compound `CC1(C)[C@H]2Cc3c(O)cccc3[C@]1(C)CCN2C(=O)c1c[nH]c2ccccc12` [Example 118, [(2R,6S)-10-Hydroxy-6,11,11-trimethyl-1,2,5,6-tetrahydro-4H-2,6-methano-benzo[d]azocin-3-yl]-(1H-indol-3-yl)-methanone] displayed an IC50 of 72 nM.
The result for `CCN(CC)Cc1ccc(C(=O)N2CC[C@@]3(C)c4cccc(O)c4C[C@@H]2C3(C)C)cc1` [Example 119, (4-Diethylaminomethyl-phenyl)-[(2R,6S)-10-hydroxy-6,11,11-trimethyl-1,2,5,6-tetrahydro-4H-2,6-methano-benzo[d]azocin-3-yl]-methanone] reads 1550 nM; that for `CC1(C)[C@H]2Cc3c(O)cccc3[C@]1(C)CCN2C(=O)c1ccc(CN2CCCC2)cc1` [Example 120, [(2R,6S)-10-Hydroxy-6,11,11-trimethyl-1,2,5,6-tetrahydro-4H-2,6-methano-benzo[d]azocin-3-yl]-(4-pyrrolidin-1-ylmethyl-phenyl)-methanone], 3840 nM; that for `Cc1noc(C)c1C(=O)N1CC[C@@]2(C)c3cccc(O)c3C[C@@H]1C2(C)C` [Example 121], 4120 nM.
The compound `COc1cc(C(=O)N2CC[C@@]3(C)c4cccc(O)c4C[C@@H]2C3(C)C)ccc1CN1CCCC1=O` [Example 122, 1-{4-[(2R,6S)-10-Hydroxy-6,11,11-trimethyl-1,2,5,6-tetrahydro-4H-2,6-methano-benzo[d]azocine-3-carbonyl]-2-methoxy-benzyl}-pyrrolidin-2-one] came in with an IC50 of 818 nM.
`CC1(C)[C@H]2Cc3c(O)cccc3[C@]1(C)CCN2C(=O)c1ccc(Cn2ccnc2)cc1` [Example 123, [(2R,6S)-10-Hydroxy-6,11,11-trimethyl-1,2,5,6-tetrahydro-4H-2,6-methano-benzo[d]azocin-3-yl]-(4-imidazol-1-ylmethyl-phenyl)-methanone] yielded a half-maximal inhibitory concentration (IC50) of 297 nM.
For `Cc1cc(C(=O)N2CC[C@@]3(C)c4cccc(O)c4C[C@@H]2C3(C)C)nn1C` [Example 124, (1,5-Dimethyl-1H-pyrazol-3-yl)-[(2R,6S)-10-hydroxy-6,11,11-trimethyl-1,2,5,6-tetrahydro-4H-2,6-methano-benzo[d]azocin-3-yl]-methanone] the value was 658 nM; for `CC1(C)[C@H]2Cc3c(O)cccc3[C@]1(C)CCN2C(=O)c1ccc(CNC(=O)c2ccccc2)cc1` [Example 125, N-{4-[(2R,6S)-10-Hydroxy-6,11,11-trimethyl-1,2,5,6-tetrahydro-4H-2,6-methano-benzo[d]azocine-3-carbonyl]-benzyl}-benzamide], 989 nM; for `CC1(C)[C@H]2Cc3c(O)cccc3[C@]1(C)CCN2C(=O)c1ccncc1` [Example 126, [(2R,6S)-10-Hydroxy-6,11,11-trimethyl-1,2,5,6-tetrahydro-4H-2,6-methano-benzo[d]azocin-3-yl]-pyridin-4-yl-methanone], 1270 nM.
The result for `CC1(C)[C@H]2Cc3c(O)cccc3[C@]1(C)CCN2C(=O)c1cccnc1` [Example 127, [(2R,6S)-10-Hydroxy-6,11,11-trimethyl-1,2,5,6-tetrahydro-4H-2,6-methano-benzo[d]azocin-3-yl]-pyridin-3-yl-methanone] reads 1470 nM.
As for `CC1(C)[C@H]2Cc3c(O)cccc3[C@]1(C)CCN2C(=O)c1ccccn1` [Example 128, [(2R,6S)-10-Hydroxy-6,11,11-trimethyl-1,2,5,6-tetrahydro-4H-2,6-methano-benzo[d]azocin-3-yl]-pyridin-2-yl-methanone], it took 1290 nM to reach half-maximal inhibition (IC50).
Turning to `CC1(C)[C@H]2Cc3c(O)cccc3[C@]1(C)CCN2C(=O)c1ccncn1` [Example 129, [(2R,6S)-10-Hydroxy-6,11,11-trimethyl-1,2,5,6-tetrahydro-4H-2,6-methano-benzo[d]azocin-3-yl]-pyrimidin-4-yl-methanone], 5850 nM corresponded to half-maximal inhibition (IC50).
`CC1(C)[C@H]2Cc3c(O)cccc3[C@]1(C)CCN2C(=O)c1ccc(CN2CCCC2=O)cc1` [Example 130, 1 -{4-[(2R,6S)-10-Hydroxy-6,11,11-trimethyl-1,2,5,6-tetrahydro-4H-2,6-methano-benzo[d]azocine-3-carbonyl]-benzyl}-pyrrolidin-2-one]: the midpoint of inhibition, the IC50, lay at 1610 nM.
For `CC1(C)[C@H]2Cc3c(O)cccc3[C@]1(C)CCN2C(=O)c1ccc(Cn2cncn2)cc1` [Example 131, [(2R,6S)-10-Hydroxy-6,11,11-trimethyl-1,2,5,6-tetrahydro-4H-2,6-methano-benzo[d]azocin-3-yl]-(4-[1,2,4]triazol-1-ylmethyl-phenyl)-methanone] the value was 361 nM.
As for `CC(=O)NCc1ccc(C(=O)N2CC[C@@]3(C)c4cccc(O)c4C[C@@H]2C3(C)C)cc1` [Example 132, N-{4-[(2R,6S)-10-Hydroxy-6,11,11-trimethyl-1,2,5,6-tetrahydro-4H-2,6-methano-benzo[d]azocine-3-carbonyl]-benzyl}-acetamide], the half-maximal inhibitory concentration (IC50) came out at 958 nM.
Take `CC1(C)[C@H]2Cc3c(O)cccc3[C@]1(C)CCN2C(=O)c1ccc(C(=O)N2CCCC2)cc1` [Example 133, [(2R,6S)-10-Hydroxy-6,11,11-trimethyl-1,2,5,6-tetrahydro-4H-2,6-methano-benzo[d]azocin-3-yl]-[4-(pyrrolidine-1-carbonyl)-phenyl]-methanone]: the midpoint of inhibition, the IC50, lay at 941 nM.
`CC1(C)[C@H]2Cc3c(O)cccc3[C@]1(C)CCN2C(=O)c1ccc(C(=O)N2CCOCC2)cc1` [Example 134, [(2R,6S)-10-Hydroxy-6,11,11-trimethyl-1,2,5,6-tetrahydro-4H-2,6-methano-benzo[d]azocin-3-yl]-[4-(morpholine-4-carbonyl)-phenyl]-methanone] gave an IC50 of 1230 nM.
For `CC1(C)[C@H]2Cc3c(O)cccc3[C@]1(C)CCN2C(=O)c1ccc(C(=O)Nc2ccccc2)cc1` [Example 135, 4-[(2R,6S)-10-Hydroxy-6,11,11-trimethyl-1,2,5,6-tetrahydro-4H-2,6-methano-benzo[d]azocine-3-carbonyl]-N-phenyl-benzamide] the value was 3520 nM; for `CC1(C)[C@H]2Cc3c(O)cccc3[C@]1(C)CCN2C(=O)c1ccc(C(=O)NCc2ccccc2)cc1` [Example 137, N-Benzyl-4-[(2R,6S)-10-hydroxy-6,11,11-trimethyl-1,2,5,6-tetrahydro-4H-2,6-methano-benzo[d]azocine-3-carbonyl]-benzamide], 3620 nM; for `CCNC(=O)c1ccc(C(=O)N2CC[C@@]3(C)c4cccc(O)c4C[C@@H]2C3(C)C)cc1` [Example 138, N-Ethyl-4-[(2R,6S)-10-hydroxy-6,11,11-trimethyl-1,2,5,6-tetrahydro-4H-2,6-methano-benzo[d]azocine-3-carbonyl]-benzamide], 2810 nM.
The result for `Cc1cccc2c1C[C@H]1N(C(=O)c3ccc4nc[nH]c4c3)CC[C@]2(C)C1(C)C` [Example 139, (3H-Benzoimidazol-5-yl)-[(2R,6S)-6,10,11,11-tetramethyl-1,2,5,6-tetrahydro-4H-2,6-methano-benzo[d]azocin-3-yl]-methanone] reads 92 nM; that for `CC1(C)[C@H]2Cc3c(F)cccc3[C@]1(C)CCN2C(=O)c1ccc2nc[nH]c2c1` [Example 140, (3H-Benzoimidazol-5-yl)-[(2R,6S)-10-fluoro-6,11,11-trimethyl-1,2,5,6-tetrahydro-4H-2,6-methano-benzo[d]azocin-3-yl]-methanone], 48 nM; that for `CC12CCN(C(=O)c3ccc4nc[nH]c4c3)C(Cc3cc(N)ccc31)C2(C)C` (stereo not drawn) [Example 141, (9-Amino-6,11,11-trimethyl-1,2,5,6-tetrahydro-4H-2,6-methano-benzo[d]azocin-3-yl)-(3H-benzoimidazol-5-yl)-methanone], 59 nM.
For the compound `CC1CN(Cc2ccc(C(=O)N3CC[C@@]4(C)c5cccc(O)c5C[C@@H]3C4(C)C)cc2)CCO1` (stereo partly drawn) [Example 142], the concentration for half-maximal inhibition (IC50) worked out at 689 nM.
